In BindingDB's records for patent US20230322789 (Broadenbio, 2023) one finds IC50 data, which are given here for two compounds.

SMILES strings stand for the structures.

In the assay the target is Mitogen-activated protein kinase kinase kinase kinase 1 (Homo sapiens, UniProt Q92918). Kind of assay: HPK1 Kinase Activity Inhibition Assay. How it is done: 1. HPK1 Kinase Activity Inhibition Test. The kinase activity of HPK1 is manifested as activity of autophosphorylation and phosphorylation of downstream substrates. In the process of autophosphorylation, additional substrates are not required, and ATP is consumed to generate ADP. […] Transfer 2 μL of 2×[…] kinase solution to 384 reaction plate, add 1 μL of the test compound to the 384 reaction plate (Greiner, 784075), centrifuge for 1 minute (1000 rpm/min), incubate at 25° C. for 10 minutes. […] of the 4×ATP mixture to a 384 reaction plate, centrifuge for 1 minute (1000 rpm/mm), and incubate at 25° C. for 60 minutes. In the reaction system, the final concentration of DMSO was […]. Transfer 4 μL of ADP-Glo to a 384 reaction plate, centrifuge for 1 minute (1000 rpm/min), and incubate at 25° C. for 40 minutes. Transfer 8 μL detection solution to a 384 reaction plate, centrifuge for 1 minute (1000 rpm/min), and incubate at 25° C. for 40 minutes. The […] signal was read using a Biotek multi-function plate reader, and the […] (half inhibitory concentration) of the compound was obtained using a four-coefficient nonlinear fitting formula.
Chain of Mitogen-activated protein kinase kinase kinase kinase 1 (Q92918 whole entry): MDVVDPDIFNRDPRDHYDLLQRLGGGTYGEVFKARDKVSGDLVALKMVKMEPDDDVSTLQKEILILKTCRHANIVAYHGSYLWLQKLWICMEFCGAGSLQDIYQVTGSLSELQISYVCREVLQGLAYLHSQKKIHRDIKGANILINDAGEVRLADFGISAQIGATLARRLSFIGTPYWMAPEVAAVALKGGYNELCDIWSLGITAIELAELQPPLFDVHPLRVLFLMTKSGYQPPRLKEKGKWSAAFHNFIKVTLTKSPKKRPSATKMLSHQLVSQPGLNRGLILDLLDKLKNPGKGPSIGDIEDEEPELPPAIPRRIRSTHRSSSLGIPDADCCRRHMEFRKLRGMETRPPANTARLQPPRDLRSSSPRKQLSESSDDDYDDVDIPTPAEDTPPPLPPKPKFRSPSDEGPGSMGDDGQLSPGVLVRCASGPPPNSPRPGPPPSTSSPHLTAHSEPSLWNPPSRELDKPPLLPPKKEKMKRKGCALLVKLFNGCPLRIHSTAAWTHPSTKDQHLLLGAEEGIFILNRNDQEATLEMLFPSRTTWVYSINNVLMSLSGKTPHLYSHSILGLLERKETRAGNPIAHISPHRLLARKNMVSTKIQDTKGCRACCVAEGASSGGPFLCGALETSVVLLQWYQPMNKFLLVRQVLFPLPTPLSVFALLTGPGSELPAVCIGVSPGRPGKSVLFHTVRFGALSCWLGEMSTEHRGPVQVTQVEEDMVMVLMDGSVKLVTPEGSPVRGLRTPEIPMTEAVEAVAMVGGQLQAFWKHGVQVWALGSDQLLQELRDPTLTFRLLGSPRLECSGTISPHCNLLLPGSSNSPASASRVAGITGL

The IC50 is the concentration that gives 50% inhibition. `CCc1cccc(F)c1-n1nc2c(-c3ccc(N4CCN(CC(C)(C)O)CC4)cc3)n[nH]c2cc1=O` [US20230322789, Compound 116]: the IC50 was less than 50 nM.
As for `Cc1cccc(F)c1-n1nc2c(-c3ccc(N4CCN5C(=O)OCC5C4)nc3)n[nH]c2cc1=O` (configuration not stated) [US20230322789, Compound 129], the IC50 is less than 50 nM.
